Source: PubChem BioAssay (NCI)
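Results reflect a 48-hour exposure of cells in 96-well plates to compound at five concentrations. The concentration for 50% growth inhibition is given as GI50. TGI: concentration producing complete growth inhibition.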

Legend:
Assay in all cases: NCI tumour cell line growth inhibition, 48 h
ACHN renal = tested on: ACHN renal
CCRF-CEM leukemia = tested on: CCRF-CEM leukemia
HL-60(TB) leukemia = tested on: HL-60(TB) leukemia
KM12 colon = tested on: KM12 colon
NCI-H460 lung = tested on: NCI-H460 lung
SF-539 CNS = tested on: SF-539 CNS
U251 CNS = tested on: U251 CNS
UACC-62 melanoma = tested on: UACC-62 melanoma
UO-31 renal = tested on: UO-31 renal
TK-10 renal = tested on: TK-10 renal

CC1(C)CCc2cc3c(cc2O1)OC(C)(C)CC3=O
TGI (ACHN renal): > 100 µM | TGI (CCRF-CEM leukemia): > 100 µM | TGI (HL-60(TB) leukemia): > 100 µM | TGI (KM12 colon): > 100 µM | TGI (NCI-H460 lung): > 100 µM | TGI (SF-539 CNS): > 100 µM | TGI (U251 CNS): > 100 µM | TGI (UACC-62 melanoma): > 100 µM | TGI (UO-31 renal): > 100 µM

CN(C)C=O.CN(C)C=O.CN1C(C(=O)Nc2ccccn2)=C([O-])c2ccccc2S1(=O)=O.CN1C(C(=O)Nc2ccccn2)=C([O-])c2ccccc2S1(=O)=O.[Cu+2]
TGI (ACHN renal): > 100 µM | TGI (HL-60(TB) leukemia): > 100 µM | TGI (KM12 colon): > 100 µM | GI50 (NCI-H460 lung): 32.5 µM | TGI (NCI-H460 lung): > 100 µM | TGI (SF-539 CNS): > 100 µM | TGI (TK-10 renal): > 100 µM | TGI (U251 CNS): > 100 µM | TGI (UACC-62 melanoma): 41.2 µM | TGI (UO-31 renal): > 100 µM

CCCCCCCCCCCCCCC(C(=O)[O-])[n+]1ccccc1 (stereo unspecified)
TGI (ACHN renal): > 100 µM | TGI (CCRF-CEM leukemia): > 100 µM | TGI (HL-60(TB) leukemia): > 100 µM | TGI (KM12 colon): > 100 µM | TGI (NCI-H460 lung): > 100 µM | TGI (SF-539 CNS): > 100 µM | TGI (TK-10 renal): 28.8 µM | TGI (U251 CNS): > 100 µM | TGI (UACC-62 melanoma): > 100 µM | TGI (UO-31 renal): > 100 µM

COc1cc2c(cc1OCCCOc1cc3c(cc1OC)C(=O)N1CC(F)(F)C[C@H]1C=N3)N=C[C@@H]1CC(F)(F)CN1C2=O
GI50 (ACHN renal): 0.973 µM | TGI (ACHN renal): 13.9 µM | TGI (CCRF-CEM leukemia): 1.06 µM | GI50 (HL-60(TB) leukemia): 0.0984 µM | TGI (HL-60(TB) leukemia): 2 µM | GI50 (KM12 colon): 2.37 µM | TGI (KM12 colon): 13.6 µM | GI50 (NCI-H460 lung): 0.0551 µM | TGI (NCI-H460 lung): 2.45 µM | GI50 (SF-539 CNS): 0.165 µM | TGI (SF-539 CNS): 2.72 µM | GI50 (TK-10 renal): 3.56 µM | TGI (TK-10 renal): 12.5 µM | GI50 (U251 CNS): 0.166 µM | TGI (U251 CNS): 11.4 µM | GI50 (UACC-62 melanoma): 0.365 µM | TGI (UACC-62 melanoma): 1.82 µM | GI50 (UO-31 renal): 1.24 µM | TGI (UO-31 renal): > 33.1 µM

COC(=O)C12OCC34C(CC5C(C)C6=CC(=O)OC6=CC5(C)C3C(O)C1O)OC(=O)C(OC(C)=O)C24 (stereo unspecified)
TGI (ACHN renal): 38.9 µM | TGI (CCRF-CEM leukemia): 32.4 µM | TGI (HL-60(TB) leukemia): 33.3 µM | TGI (KM12 colon): 32.6 µM | TGI (NCI-H460 lung): 51.8 µM | TGI (SF-539 CNS): 34 µM | TGI (TK-10 renal): 31.4 µM | TGI (U251 CNS): 57.8 µM | TGI (UACC-62 melanoma): 21.9 µM | TGI (UO-31 renal): 46 µM

Cc1cccc(NC(N)=S)c1
TGI (ACHN renal): > 100 µM | TGI (CCRF-CEM leukemia): > 100 µM | TGI (HL-60(TB) leukemia): > 100 µM | TGI (KM12 colon): > 100 µM | TGI (NCI-H460 lung): > 100 µM | TGI (SF-539 CNS): > 100 µM | TGI (TK-10 renal): > 100 µM | TGI (U251 CNS): > 100 µM | TGI (UACC-62 melanoma): > 100 µM | TGI (UO-31 renal): > 100 µM

NC(CCCNc1ccc(O)cc1)C(=O)O (stereo unspecified)
TGI (ACHN renal): > 57.4 µM | TGI (CCRF-CEM leukemia): > 71.1 µM | TGI (HL-60(TB) leukemia): 58.3 µM | TGI (KM12 colon): > 100 µM | TGI (NCI-H460 lung): > 100 µM | TGI (SF-539 CNS): 83.5 µM | TGI (TK-10 renal): 97.7 µM | TGI (U251 CNS): > 100 µM | TGI (UACC-62 melanoma): 38.2 µM | TGI (UO-31 renal): > 100 µM

NS(=O)(=O)c1ccc(C(=O)O)cc1
TGI (ACHN renal): > 100 µM | TGI (CCRF-CEM leukemia): > 100 µM | TGI (HL-60(TB) leukemia): > 100 µM | TGI (KM12 colon): > 100 µM | TGI (TK-10 renal): > 100 µM | TGI (U251 CNS): > 100 µM | TGI (UACC-62 melanoma): > 100 µM | TGI (UO-31 renal): > 100 µM

COc1ccc2c(c1)C(=O)c1c-2n(CCCCl)c(=O)c2cc([N+](=O)[O-])ccc12
GI50 (ACHN renal): < 0.01 µM | GI50 (CCRF-CEM leukemia): < 0.01 µM | TGI (CCRF-CEM leukemia): 0.212 µM | GI50 (HL-60(TB) leukemia): < 0.037 µM | TGI (HL-60(TB) leukemia): 0.147 µM | GI50 (KM12 colon): 0.271 µM | GI50 (NCI-H460 lung): < 0.0178 µM | GI50 (SF-539 CNS): 0.11 µM | TGI (SF-539 CNS): 0.456 µM | GI50 (TK-10 renal): 0.639 µM | GI50 (U251 CNS): < 0.01 µM | TGI (U251 CNS): 0.476 µM | TGI (UACC-62 melanoma): 1.81 µM

Nc1ccc([As](=O)(O)O)cc1
TGI (ACHN renal): > 100 µM | TGI (CCRF-CEM leukemia): > 100 µM | TGI (HL-60(TB) leukemia): > 100 µM | TGI (KM12 colon): > 100 µM | TGI (NCI-H460 lung): > 100 µM | TGI (SF-539 CNS): > 100 µM | TGI (TK-10 renal): > 100 µM | TGI (U251 CNS): > 100 µM | TGI (UACC-62 melanoma): > 100 µM | TGI (UO-31 renal): > 100 µM

Cn1ncc2c(=O)[nH]c(-c3ccccc3)nc21
TGI (ACHN renal): > 100 µM | TGI (CCRF-CEM leukemia): > 100 µM | TGI (HL-60(TB) leukemia): > 100 µM | TGI (KM12 colon): > 100 µM | TGI (SF-539 CNS): > 100 µM | TGI (TK-10 renal): > 100 µM | TGI (U251 CNS): > 100 µM | TGI (UACC-62 melanoma): > 100 µM | TGI (UO-31 renal): > 100 µM

CC(C)(c1ccccc1)c1ccc(Oc2ccc3c(c2)-c2nc-3nc3[nH]c(nc4nc(nc5[nH]c(n2)c2ccc(Oc6ccc(C(C)(C)c7ccccc7)cc6)cc52)-c2cc(Oc5ccc(C(C)(C)c6ccccc6)cc5)ccc2-4)c2ccc(Oc4ccc(C(C)(C)c5ccccc5)cc4)cc32)cc1
TGI (ACHN renal): > 100 µM | TGI (CCRF-CEM leukemia): > 100 µM | TGI (HL-60(TB) leukemia): > 100 µM | TGI (KM12 colon): > 100 µM | TGI (NCI-H460 lung): > 100 µM | TGI (SF-539 CNS): > 100 µM | TGI (TK-10 renal): > 100 µM | TGI (U251 CNS): > 100 µM | TGI (UACC-62 melanoma): > 100 µM | TGI (UO-31 renal): > 100 µM

O=C1CC(c2ccccc2)NCCCCN2CC(CN1)C(C(O)c1ccccc1)C2=O (stereo unspecified)
TGI (ACHN renal): > 100 µM | TGI (CCRF-CEM leukemia): > 100 µM | TGI (HL-60(TB) leukemia): > 100 µM | TGI (KM12 colon): > 100 µM | TGI (NCI-H460 lung): > 100 µM | TGI (SF-539 CNS): > 100 µM | TGI (TK-10 renal): > 100 µM | TGI (U251 CNS): > 100 µM | TGI (UACC-62 melanoma): > 100 µM | TGI (UO-31 renal): > 100 µM

O=C(O)\C=C/C=C/C=C/C=C/C(=O)O
TGI (ACHN renal): > 100 µM | TGI (CCRF-CEM leukemia): > 100 µM | TGI (HL-60(TB) leukemia): > 100 µM | TGI (KM12 colon): > 100 µM | TGI (NCI-H460 lung): > 100 µM | TGI (SF-539 CNS): > 100 µM | TGI (U251 CNS): > 100 µM | TGI (UACC-62 melanoma): > 100 µM | TGI (UO-31 renal): > 100 µM

CC1(C)CCCC2(C)C3=C(CCC12)C(=O)OC3 (stereo unspecified)
TGI (ACHN renal): > 100 µM | TGI (CCRF-CEM leukemia): > 100 µM | TGI (HL-60(TB) leukemia): 67.9 µM | TGI (KM12 colon): > 100 µM | TGI (SF-539 CNS): > 100 µM | TGI (TK-10 renal): > 100 µM | TGI (U251 CNS): > 100 µM | TGI (UACC-62 melanoma): > 100 µM | TGI (UO-31 renal): > 100 µM
